Reference: paper PMC10892041, “Vanadium Complexes with Thioanilide Derivatives of Amino Acids: Inhibition of Human Phosphatases and Specificity in Various Cell Models of Metabolic Disturbances” (Pharmaceuticals, 2024)

What was measured:
Assay type in all cases: biochemical
SHP1 = target: T1, SHP1 (Homo sapiens, UniProt P29350); assay: Inhibition of human recombinant tyrosine phosphatase SHP1 (DiFMUP fluorescence); settings: 1 µM, control solvent only, SD did not exceed 6%
T1 construct: purchased Sigma-Aldrich
T1 sequence (P29350 whole entry): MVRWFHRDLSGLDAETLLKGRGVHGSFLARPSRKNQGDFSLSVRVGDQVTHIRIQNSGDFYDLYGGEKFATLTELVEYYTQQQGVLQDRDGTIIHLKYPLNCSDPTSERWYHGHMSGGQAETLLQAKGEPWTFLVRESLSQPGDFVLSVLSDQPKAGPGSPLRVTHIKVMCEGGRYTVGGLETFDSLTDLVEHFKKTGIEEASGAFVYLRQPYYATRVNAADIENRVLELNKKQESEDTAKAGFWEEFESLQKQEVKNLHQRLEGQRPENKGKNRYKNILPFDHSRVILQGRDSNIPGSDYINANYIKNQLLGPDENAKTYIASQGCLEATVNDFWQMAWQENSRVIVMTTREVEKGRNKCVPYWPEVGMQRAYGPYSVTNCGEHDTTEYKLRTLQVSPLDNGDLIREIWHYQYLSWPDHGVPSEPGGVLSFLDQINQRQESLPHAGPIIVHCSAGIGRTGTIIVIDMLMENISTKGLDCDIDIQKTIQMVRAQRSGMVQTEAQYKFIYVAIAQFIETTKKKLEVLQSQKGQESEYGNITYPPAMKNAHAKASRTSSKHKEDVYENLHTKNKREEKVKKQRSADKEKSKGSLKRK
Procedure: (§1) To determine the ability of the tested compounds for inhibition tyrosine phosphatases, human recombinant proteins were used (Sigma-Aldrich). The reactions were performed in black opaque 384-well microplates (PerkinElmer, Waltham, MA, USA). An equal volume of phosphatase solution in a reaction buffer (25 mM of 3-(N-morpholino)propanesulfonic acid (MOPS), 50 mM NaCl, 1 mM dithiothreitol (DTT), and 0.05% Tween-20 (pH 7.0)) was added to the solution of the tested compound on microplate. These solutions were dispensed using an automated injector. The following final concentrations of the tested phosphatases were used: PTP1B 50 ng/mL, SHP1 400 ng/mL, SHP2 50 ng/mL, LAR 5 ng/mL, and PTPRA 100 ng/mL. After 10 min, a solution of phosphate 6,8-difluoro-4-methyl (DiFMUP; Thermo Fisher Scientific) was added until its final concentration was 0.1 mM. Samples were incubated for 20 miN at 23 °C, and then the measurements of fluorescence intensity (excitation 355 and emission […]) were performed on a multifunctional plate reader POLARstar Omega (BMG Labtech, Ortenberg, Germany). Assays were performed in triplicate. For the screening assays, the final concentration of the tested compounds was 1 µM. The results were expressed as percent inhibition of untreated control (enzyme with vehicle only) for the screening tests. […] IC50 were calculated using GraphPad Prism version 6.0 software (GraphPad Software, Boston, MA, USA).

SHP2 = target: T2, SHP2 (Homo sapiens, UniProt Q06124); assay: Inhibition of human recombinant tyrosine phosphatase SHP2 (DiFMUP fluorescence); settings: 1 µM, control solvent only, SD did not exceed 6%
T2 construct: purchased Sigma-Aldrich
T2 sequence (Q06124 1-593): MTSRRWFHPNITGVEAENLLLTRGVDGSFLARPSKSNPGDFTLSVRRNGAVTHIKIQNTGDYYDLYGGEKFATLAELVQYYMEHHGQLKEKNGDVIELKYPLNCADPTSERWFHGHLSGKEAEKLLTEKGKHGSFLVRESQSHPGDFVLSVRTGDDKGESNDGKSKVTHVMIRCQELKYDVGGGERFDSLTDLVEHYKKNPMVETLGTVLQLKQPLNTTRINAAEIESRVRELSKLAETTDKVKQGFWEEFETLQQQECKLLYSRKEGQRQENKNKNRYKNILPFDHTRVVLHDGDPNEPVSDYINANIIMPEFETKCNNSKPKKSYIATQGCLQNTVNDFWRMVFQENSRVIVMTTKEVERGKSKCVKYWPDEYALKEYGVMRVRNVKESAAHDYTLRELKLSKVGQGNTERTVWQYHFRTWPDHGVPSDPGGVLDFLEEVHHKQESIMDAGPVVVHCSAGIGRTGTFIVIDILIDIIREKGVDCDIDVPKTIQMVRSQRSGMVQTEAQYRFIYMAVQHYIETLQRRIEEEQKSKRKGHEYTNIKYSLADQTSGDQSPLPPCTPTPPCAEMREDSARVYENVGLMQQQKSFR
Procedure: as §1

PTP1B = target: T3, PTP1B (Homo sapiens, UniProt P18031); assay: Inhibition of human recombinant tyrosine phosphatase PTP1B (DiFMUP fluorescence); settings: for Inhibition of PTP1B, percentage of inhibition of the control: 1 µM, control solvent only, SD did not exceed 6%
T3 construct: purchased Sigma-Aldrich
T3 sequence (P18031 1-435): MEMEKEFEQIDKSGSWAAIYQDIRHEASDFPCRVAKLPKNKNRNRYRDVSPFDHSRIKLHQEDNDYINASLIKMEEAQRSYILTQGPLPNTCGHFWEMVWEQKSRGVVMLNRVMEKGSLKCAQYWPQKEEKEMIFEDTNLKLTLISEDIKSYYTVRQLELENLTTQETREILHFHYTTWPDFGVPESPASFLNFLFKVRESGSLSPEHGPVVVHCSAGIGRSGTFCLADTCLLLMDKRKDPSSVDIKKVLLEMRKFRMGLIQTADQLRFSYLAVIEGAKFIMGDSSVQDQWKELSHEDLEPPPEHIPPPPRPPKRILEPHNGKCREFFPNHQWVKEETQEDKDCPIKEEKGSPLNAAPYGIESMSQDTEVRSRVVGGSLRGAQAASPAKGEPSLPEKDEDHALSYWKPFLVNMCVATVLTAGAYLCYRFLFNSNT
Procedure: as §1

LAR = target: T4, LAR (Homo sapiens, UniProt P10586); assay: Inhibition of human recombinant tyrosine phosphatase LAR (DiFMUP fluorescence); settings: 1 µM, control solvent only, SD did not exceed 6%
T4 sequence (P10586 1352-1607 limits assumed): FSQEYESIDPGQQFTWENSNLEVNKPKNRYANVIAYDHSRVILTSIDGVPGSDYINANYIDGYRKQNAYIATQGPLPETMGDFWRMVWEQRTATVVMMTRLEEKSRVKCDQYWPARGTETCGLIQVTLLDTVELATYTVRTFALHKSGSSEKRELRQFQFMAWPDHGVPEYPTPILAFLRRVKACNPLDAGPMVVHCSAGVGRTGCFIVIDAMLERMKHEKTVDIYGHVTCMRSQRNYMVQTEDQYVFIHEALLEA
Procedure: as §1

| Compound | Inhibition of SHP1, percentage of inhibition of the control (SHP1) | Inhibition of SHP2, percentage of inhibition of the control (SHP2) | Inhibition of PTP1B, percentage of inhibition of the control (PTP1B) | Inhibition of LAR, percentage of inhibition of the control (LAR) | inhibition at 1 µM (SHP1; read-out: Inhibition of SHP1, percentage of inhibition of the control) | inhibition at 1 µM (SHP2; read-out: Inhibition of SHP2, percentage of inhibition of the control) | inhibition at 1 µM (PTP1B; read-out: Inhibition of PTP1B, percentage of inhibition of the control) | inhibition at 1 µM (LAR; read-out: Inhibition of LAR, percentage of inhibition of the control) |
| --- | --- | --- | --- | --- | --- | --- | --- | --- |
| CCC(C)C(N=C(C)CC(=S)Nc1ccccc1)C(=O)[O][V](=[O])([Cl])[Cl] (racemic) [VC109, [VOCl2(L5)]·3HCl] | 80% | 83% | 70% | 56% | – | – | – | – |
| Cc1ccc(C(=O)Nc2ccc(S(=O)(=O)O)c3cc(S(=O)(=O)O)cc(S(=O)(=O)O)c23)cc1NC(=O)c1cccc(NC(=O)Nc2cccc(C(=O)Nc3cc(C(=O)Nc4ccc(S(=O)(=O)O)c5cc(S(=O)(=O)O)cc(S(=O)(=O)O)c45)ccc3C)c2)c1 [Suramin, reference compound] | – | – | – | – | 17% | 10% | 7% | 9% |
| O.[O]=[V]1[O]C(c2ccc(O)cc2)=NN=Cc2cc(Br)ccc2[O]1.c1cnc2c(c1)ccc1cccnc12 [VC046, [VO(L9)(phen)]⋅2H2O] | 62% | 66% | 34% | 37% | – | – | – | – |
| CC(C)(C)c1ccc(C2=NN=Cc3cc(Br)ccc3[O][V](=[O])[O]2)cc1.O.c1cnc2c(c1)ccc1cccnc12 [VC048, [VO(L10)(phen)]⋅0.5H2O] | 62% | 64% | 36% | 35% | – | – | – | – |
